Values quoted from earlier work as cited in patent publication US11013731B2, “Intratumoral administration of sirolimus for treatment of prostate cancer” (SANTEN PHARMACEUTICAL CO., LTD., priority 2017, dated 2021).

Settings: according to Medscape

For `CO[C@H]1C[C@@H]2CC[C@@H](C)[C@@](O)(O2)C(=O)C(=O)N2CCCC[C@H]2C(=O)O[C@H]([C@H](C)C[C@@H]2CC[C@@H](O)[C@H](OC)C2)CC(=O)[C@H](C)/C=C(\C)[C@@H](O)[C@@H](OC)C(=O)[C@H](C)C[C@H](C)/C=C/C=C/C=C/1C` [sirolimus], which oral bioavailability is on record?
The oral bioavailability was 14%.
